The text below walks through data of publication PMC12736150 (Pharmaceuticals, 2025).

Where two headings read alike, the source gives them in different places.

The nature of one data set: in vitro. The settings on record: African green monkey.
Data set [1] has as its system MPXV strain MOH-NRC-0002/2022, clade II lineage A.2.1. As to the kind of experiment: in vitro. The settings on record: African green monkey, SI (selectivity safety index = CC50/IC50).
For data set [2] the test system is unchanged. Kind of data set: microbe, parasite or virus in culture. The settings on record: Monkeypox virus.
For data set [3] the test system is unchanged.
Data set [4] concerns Zr-599 and Liberia strains of MPXV. As to conditions: cited from earlier work.
Data set [5] deals with clade I or clade II MPXV infection. As to conditions: human, in vivo; cited from earlier work.
The subject of data set [6] is MPXV lineage responsible for the 2022 outbreak. As to conditions: in vivo; cited from earlier work.

A word on the IC50: it is the point on the concentration scale where inhibition reaches its midpoint. `Nc1nc(NC2CC2)c2ncn([C@H]3C=C[C@@H](CO)C3)c2n1` [Abacavir] yielded a CC50 in “in vitro” of 328 µM. In data set [1], the selectivity ratio is 5.46. The molecule also returned an IC50 in data set [2] (Vero C1008, 72 h) of 60.1 µM.

In “in vitro”, `Nc1nc2c(ncn2COCCO)c(=O)[nH]1` [Acyclovir] showed a CC50 of 332 µM.

On to `NC12CC3CC(CC(C3)C1)C2` [Amantadine], for which the “SI (selectivity safety index = CC50/IC50)” value in data set [3] (African green monkey) was 15.22. Also, the CC50 in the data set “in vitro” amounted to 570 µM. The selectivity ratio in data set [1] was 15.2. This molecule gave an IC50 in data set [2] (Vero C1008, 72 h) of 37.5 µM.

Regarding `CCN(CC)CCCC(C)Nc1ccnc2cc(Cl)ccc12` (stereo not shown) [Chloroquine], the CC50 in “in vitro” came to 253 µM. Moreover, the selectivity ratio in data set [1] was found to be 2.47. In data set [2] (Vero C1008, 72 h), the IC50 was determined as 102 µM.

`COC(=O)N[C@H](C(=O)N1CCC[C@H]1c1nc(-c2ccc(-c3ccc(-c4c[nH]c([C@@H]5CCCN5C(=O)[C@@H](NC(=O)OC)C(C)C)n4)cc3)cc2)c[nH]1)C(C)C` [Daclatasvir]: the CC50 in “in vitro” was determined as 386 µM. Also, the selectivity ratio in data set [1] came to 1.99. Moreover, in data set [2] (Vero C1008, 72 h), it took 194 µM to reach half-maximal inhibition (IC50).

`C[C@@H]1CCO[C@H]2Cn3cc(C(=O)NCc4ccc(F)cc4F)c(=O)c(O)c3C(=O)N12` [Dolutegravir]: the “antiviral activity against MPXV (in words)” value (from here on “antiviral activity”) in data set [3] is given as “moderate antiviral activity”. The CC50 in “in vitro” was determined as 160 µM. In addition, the selectivity ratio in data set [1] is 7.82. The same molecule returned an IC50 in data set [2] (Vero C1008, 72 h) of 20.5 µM.

Turning to `C=C1[C@H](CO)[C@@H](O)C[C@@H]1n1cnc2c(=O)[nH]c(N)nc21` [Entecavir], the “antiviral activity” value in data set [3] is “moderate anti-Mpox activity”. Besides, the CC50 in “in vitro” was found to be 336 µM. Further, the selectivity ratio in data set [1] is 12. In data set [2] (Vero C1008, 72 h), this molecule had an IC50 of 28.1 µM.

Molecule `NC(=O)c1nc(F)c[nH]c1=O` [Favipiravir] returned a CC50 in the data set “in vitro” of 283 µM. For the same molecule, the selectivity ratio in data set [1] worked out at 3.41. The IC50 in data set [2] (Vero C1008, 72 h) was 82.8 µM.

On to `CCN(CCO)CCCC(C)Nc1ccnc2cc(Cl)ccc12` (stereo not shown) [Hydroxychloroquine], for which the “antiviral activity” value in data set [3] was “moderate antiviral activity”. The CC50 in the data set “in vitro” is 296 µM. Moreover, in data set [1], the selectivity ratio worked out at 7.41. In addition, the IC50 in data set [2] (Vero C1008, 72 h) was determined as 39.9 µM.

In the data set “in vitro”, `Nc1ccn([C@@H]2CS[C@H](CO)O2)c(=O)n1` [Lamivudine] had a CC50 of 410 µM.

For the molecule `CC(C)C(=O)OC[C@H]1O[C@@H](n2ccc(NO)nc2=O)[C@H](O)[C@@H]1O` [Molnupiravir], the IC50 in data set [3] was 5.73 µM; in data set [4], around 5.2 µM; in data set [2] (Vero C1008, 72 h), 5.7 µM. Also, in data set [3], the “antiviral activity” value is on record as “moderate anti-Mpox activity”. The same molecule displayed a CC50 in the data set “in vitro” of 111 µM.

`Cc1ccnc2c1NC(=O)c1cccnc1N2C1CC1` [Nevirapine] displayed a CC50 in the data set “in vitro” of 277 µM. The selectivity ratio in data set [1] was determined as 2.61. 106 µM corresponded to half-maximal inhibition in data set [2] (Vero C1008, 72 h) (IC50).

On to `CCOC(=O)C1=C[C@@H](OC(CC)CC)[C@H](NC(C)=O)[C@@H](N)C1` [Oseltamivir], for which the CC50 in the data set “in vitro” was found to be 369 µM; in the data set with Vero-E6 cells (African green monkey) it was 269 µM. In addition, in data set [1], the selectivity ratio amounted to 4.6. This molecule also gave an IC50 in data set [2] (Vero C1008, 72 h) of 58.5 µM.

`Nc1nc2c(ncn2CCC(CO)CO)c(=O)[nH]1` [Penciclovir]: in “in vitro”, the CC50 turned out to be 280 µM. Further, the selectivity ratio in data set [1] was 3.95. Further, the IC50 in data set [2] (Vero C1008) came out at 70.9 µM; in data set [2] (Vero C1008, 72 h) it was 70.8 µM.

With `CCC(CC)COC(=O)[C@H](C)N[P@](=O)(OC[C@H]1O[C@@](C#N)(c2ccc3c(N)ncnn23)[C@H](O)[C@@H]1O)Oc1ccccc1` [Remdesivir], the CC50 in “in vitro” is 503 µM. Moreover, the IC50 in data set [2] (Vero C1008, 72 h) worked out at 10 µM.

Molecule `NC(=O)c1ncn([C@@H]2O[C@H](CO)[C@@H](O)[C@H]2O)n1` [Ribavirin] had a CC50 in the data set “in vitro” of 262 µM. Further, the selectivity ratio in data set [1] turned out to be 1.83. In data set [2] (Vero C1008, 72 h), this molecule showed an IC50 of 144 µM.

For `CC(C)OC(=O)[C@H](C)N[P@](=O)(OC[C@H]1O[C@@H](n2ccc(=O)[nH]c2=O)[C@](C)(F)[C@@H]1O)Oc1ccccc1` [Sofosbuvir], the CC50 in the data set “in vitro” worked out at 286 µM. Also, the selectivity ratio in data set [1] turned out to be 0.61. In data set [2] (Vero C1008, 72 h), this molecule showed an IC50 of 470 µM.

`O=C(NN1C(=O)[C@@H]2[C@@H]3C=C[C@@H]([C@H]4C[C@@H]34)[C@@H]2C1=O)c1ccc(C(F)(F)F)cc1` [Tecovirimat]: in data set [5], the lesion resolution time entry is given as “did not reduce lesion resolution time” and the “safety in randomized clinical trials” value was “safe”. Further, the survival rates entry in data set [6] was “enhanced the survival rates”.

The molecule `CC(C)[C@H](N)C(=O)OCCOCn1cnc2c(=O)[nH]c(N)nc21` [Valaciclovir] had a CC50 in “in vitro” of 404 µM. Also, the selectivity ratio in data set [1] was determined as 5.42. The molecule also displayed an IC50 in data set [2] (Vero C1008, 72 h) of 74.4 µM.

Molecule `CC(C)[C@H](N)C(=O)OCC(CO)OCn1cnc2c(=O)nc(N)[nH]c21` (stereo partly shown) [Valganciclovir] yielded a CC50 in “in vitro” of 494 µM. For the same molecule, the selectivity ratio in data set [1] was found to be 5.36. The same molecule yielded an IC50 in data set [2] (Vero C1008, 72 h) of 92 µM.

On to `COC[C@H]1C[C@@H](c2ncc(-c3ccc4c(c3)COc3cc5c(ccc6nc([C@@H]7CC[C@H](C)N7C(=O)[C@@H](NC(=O)OC)C(C)C)[nH]c65)cc3-4)[nH]2)N(C(=O)[C@H](NC(=O)OC)c2ccccc2)C1` [Velpatasvir], for which the CC50 in “in vitro” worked out at 316 µM. Also, the selectivity ratio in data set [1] came to 0.95. In addition, the IC50 in data set [2] (Vero C1008, 72 h) came to 332 µM.

In “in vitro”, `CC(=O)N[C@H]1[C@H]([C@H](O)[C@H](O)CO)OC(C(=O)O)=C[C@@H]1N=C(N)N` [Zanamivir] showed a CC50 of 359 µM. For the same molecule, the selectivity ratio in data set [1] stood at 1.9. In addition, 189 µM corresponded to half-maximal inhibition in data set [2] (Vero C1008, 72 h) (IC50).

With `Cc1cn([C@H]2C[C@H](N=[N+]=[N-])[C@@H](CO)O2)c(=O)[nH]c1=O` [Zidovudine], the “antiviral activity” value in data set [3] is “limited activity”. In “in vitro”, this molecule yielded a CC50 of 282 µM. Moreover, in data set [1], the selectivity ratio is 2.29. In data set [2] (Vero C1008, 72 h), this molecule showed an IC50 of 123 µM.

For the molecule Tenofovir disoproxil, in data set [3], half-maximal inhibition (IC50) required 67.2 µM and the “SI (selectivity safety index = CC50/IC50)” value stood at 4.50. Besides, in the data set with Vero-E6 cells, the CC50 worked out at 302 µM.
